Reference: US20050255111A1, “Use of an inhibitor or antagonist against tissue factor” (priority 2002, published 2005)

What was measured:
IBMIR = IBMIR in vitro
TF = TF synthesis and secretion in cultured human islets (TF content by EIA); type: cell-based
Experimental: Islets were cultured for 24 h in CMRL-medium containing […] Nicotinamide, which is the standard medium used for islet culture. The medium was thereafter exchanged to CMRL-medium without Nicotinamid. After a baseline period of another 24 h, islets were handpicked for analysis of TF content. Culture was continued for 48 h with medium containing agents known to affect TF expression in monocytes and endothelial cells. These were, L-Arginin, Cyclosporin A, Enalapril, acetylcysteine and nicotinamid. The islets were harvested, the TF content analysed using a commercial EIA kit and the islets tested in the in vitro loop model.
Islets were cultured for 48 h in medium containing 0, 10, 25 and 50 mM Nicotinamid and the intracellular TF concentration assessed, see FIG. 6. The islets were also exposed to fresh human ABO compatible blood in the in vitro loop model. Samples were retrieved after 5, 15, 30 and 60 min and analysed for TAT, see FIG. 7.
Islets were cultured for 48 h in medium containing Enalapril (40 μg/ml), Cyclosporin A (10 μmol/L), L-Aginine (1 mmol/L), Nicotinamide (10 mmol/L) and the intracellular TF concentration assessed. The concentration of Tf is expressed as percentage of the untreated control, see FIG. 8.

Compound	IBMIR in vitro (IBMIR)	production of tissue factor in the islets (TF content) (TF; nicotinamide 0 to 50 mM, 48 h culture)	secretion of TF (TF; nicotinamide, dose dependent)
N=C(N)c1ccc(CNC(=O)[C@@H]2CCN2C(=O)[C@H](NCC(=O)O)C2CCCCC2)cc1 [Melagatran]	abrogated	–	–
NC(=O)c1cccnc1 [nicotinamide]	–	dose-dependently inhibited	inhibited
